The NIST ThermoML archive (doi:10.1016/j.jct.2018.07.013)

Legend:
[1] = xn = mol fraction of the nth substance listed; settings: 298.15 K, 100 kPa, Liquid; for speed of sound: Frequency=3 MHz, Single path-length method; for mass density: Vibrating tube method
[2] = 298.15 K, 100 kPa, Liquid; for speed of sound: Frequency=3 MHz, Single path-length method; for mass density: Vibrating tube method
[3] = excess molar enthalpy (molar enthalpy of mixing); xn = mol fraction of the nth substance listed; settings: 298.15 K, 100 kPa, Liquid, Power-compensation calorimetry

CCO [ethanol] + CCOC(=O)C(C)O
[1], x2 = 0
Settings	mass density [kg/m3]	speed of sound [m/s]
–	785.16	1143.2

CCO [ethanol] + COC(=O)C(C)O
[1], x2 = 0
Settings	mass density [kg/m3]	speed of sound [m/s]
–	785.16	1143.2

CCCO [propan-1-ol]
[2]
Settings	mass density [kg/m3]	speed of sound [m/s]
–	799.66	1206

CCOC(=O)C(C)O (racemic) [DL-ethyl lactate]
[2]
Settings	mass density [kg/m3]	speed of sound [m/s]
–	1028.45	1279.3

CCCCO [butan-1-ol]
[2]
Settings	mass density [kg/m3]	speed of sound [m/s]
–	805.95	1240.4

COC(=O)C(C)O (stereo unspecified) [methyl 2-hydroxypropanoate] + CCCCO
Settings	excess molar enthalpy, [3] [kcal/mol]	mass density, [1] [kg/m3]	speed of sound, [1] [m/s]
x1 = 0.054	0.0531	–	–
x1 = 0.0589	–	822.83	1242.8
x1 = 0.1088	–	837.09	1245.1
x1 = 0.132	0.109	–	–
x1 = 0.174	0.138	–	–
x1 = 0.1905	–	860.37	1249.8
x1 = 0.287	0.186	–	–
x1 = 0.2973	–	890.71	1257.2
x1 = 0.384	0.204	–	–
x1 = 0.3887	–	916.62	1265
x1 = 0.487	0.207	–	–
x1 = 0.4999	–	948.04	1275.8
x1 = 0.552	0.2	–	–
x1 = 0.5977	–	975.58	1286.4
x1 = 0.6976	–	1003.57	1298.3
x1 = 0.705	0.16	–	–
x1 = 0.75	0.136	–	–
x1 = 0.7926	–	1030.02	1310.6
x1 = 0.864	0.0767	–	–
x1 = 0.9107	–	1062.72	1326.6
x1 = 0.934	0.039	–	–
x1 = 0.9577	–	1075.69	1333.2
x1 = 1	–	1087.35	1339.3

CCCO [propan-1-ol] + COC(=O)C(C)O
[1], x2 = 0
Settings	mass density [kg/m3]	speed of sound [m/s]
–	799.66	1206

CCCCO [butan-1-ol] + COC(=O)C(C)O
[1], x2 = 0
Settings	mass density [kg/m3]	speed of sound [m/s]
–	805.95	1240.4

COC(=O)C(C)O (stereo unspecified) [methyl 2-hydroxypropanoate] + CO
Settings	excess molar enthalpy, [3] [kcal/mol]	mass density, [1] [kg/m3]	speed of sound, [1] [m/s]
x1 = 0.0565	–	826.67	1134.5
x1 = 0.0945	–	850.35	1152.9
x1 = 0.104	0.0038	–	–
x1 = 0.151	0.00392	–	–
x1 = 0.1933	–	902.12	1196.4
x1 = 0.262	0.00117	–	–
x1 = 0.287	0.000215	–	–
x1 = 0.3029	–	947.03	1234.1
x1 = 0.316	-0.000956	–	–
x1 = 0.3844	–	974.04	1254.7
x1 = 0.399	-0.00413	–	–
x1 = 0.482	-0.00719	–	–
x1 = 0.5099	–	1008.1	1282.4
x1 = 0.595	-0.00903	–	–
x1 = 0.6105	–	1029.88	1301.4
x1 = 0.687	-0.00937	–	–
x1 = 0.7215	–	1049.84	1318.2
x1 = 0.798	-0.00686	–	–
x1 = 0.8206	–	1064.82	1329.8
x1 = 0.879	-0.0044	–	–
x1 = 0.9225	–	1078.13	1337.1
x1 = 0.945	-0.00194	–	–
x1 = 0.9601	–	1082.7	1338.8
x1 = 1	–	1087.35	1339.3

CCCCO [butan-1-ol] + CCOC(=O)C(C)O
[1], x2 = 0
Settings	mass density [kg/m3]	speed of sound [m/s]
–	805.95	1240.4

CO [methanol]
[2]
Settings	mass density [kg/m3]	speed of sound [m/s]
–	786.53	1104

CO [methanol] + COC(=O)C(C)O
[1], x2 = 0
Settings	mass density [kg/m3]	speed of sound [m/s]
–	786.53	1104

COC(=O)C(C)O (stereo unspecified) [methyl 2-hydroxypropanoate] + CCCO
Settings	excess molar enthalpy, [3] [kcal/mol]	mass density, [1] [kg/m3]	speed of sound, [1] [m/s]
x1 = 0.045	–	815.93	1211.5
x1 = 0.05	0.0457	–	–
x1 = 0.1025	–	836.2	1218.9
x1 = 0.104	0.0832	–	–
x1 = 0.2047	–	870.81	1232.5
x1 = 0.207	0.134	–	–
x1 = 0.3	–	901.52	1245.4
x1 = 0.309	0.162	–	–
x1 = 0.4004	–	932.31	1259.8
x1 = 0.411	0.172	–	–
x1 = 0.501	0.17	–	–
x1 = 0.5012	–	961.71	1274.1
x1 = 0.5911	–	986.71	1286.9
x1 = 0.607	0.157	–	–
x1 = 0.6935	–	1013.88	1300.8
x1 = 0.707	0.133	–	–
x1 = 0.7978	–	1040.2	1315.1
x1 = 0.802	0.101	–	–
x1 = 0.9	–	1064.67	1327.6
x1 = 0.902	0.0531	–	–
x1 = 0.945	–	1075.04	1333.1
x1 = 0.95	0.0258	–	–
x1 = 1	–	1087.35	1339.3

CCOC(=O)C(C)O (stereo not drawn) [DL-ethyl lactate] + CCCO
Settings	excess molar enthalpy, [3] [kcal/mol]	mass density, [1] [kg/m3]	speed of sound, [1] [m/s]
x1 = 0.025	0.0229	–	–
x1 = 0.0489	–	816.57	1211.1
x1 = 0.054	0.0473	–	–
x1 = 0.1025	–	834.15	1216.4
x1 = 0.117	0.0815	–	–
x1 = 0.2027	–	864.58	1225.8
x1 = 0.216	0.109	–	–
x1 = 0.3036	–	892.35	1235.2
x1 = 0.309	0.12	–	–
x1 = 0.3973	–	915.89	1242.5
x1 = 0.404	0.121	–	–
x1 = 0.4963	–	938.64	1250.2
x1 = 0.517	0.115	–	–
x1 = 0.6012	–	960.68	1257.8
x1 = 0.612	0.101	–	–
x1 = 0.6951	–	978.76	1263.9
x1 = 0.712	0.0765	–	–
x1 = 0.8061	–	998.37	1270.4
x1 = 0.814	0.0459	–	–
x1 = 0.905	0.021	–	–
x1 = 0.9076	–	1014.74	1275.6
x1 = 0.9482	–	1020.9	1277.3
x1 = 1	–	1028.45	1279.3
